# Experimental data as given in paper PMC11279551, “Pharmacokinetics and Enterohepatic Circulation of 2-(Quinoline-8-carboxamido)benzoic Acid (2-QBA) in Mice” (Pharmaceutics, 2024).
# Read-outs that look alike come from different tables or passages of the source.
# What was measured:
# Water solubility = assay type: physicochemical; conditions: n = 4
# [1] = Pharmacokinetics after IV administration in mice; assay type: in vivo; conditions: plasma; for AUC(0-inf) / MRT / clearance / half-life / AUC(0-t) / Vd: male, ICR, mouse; for AUC(0-t): read-out: AUC24h; for Vd: read-out: Vdss
# Protocol: Male ICR mice (7 weeks old, […]; Samtako, Osan, Korea) were acclimated to the animal facility at Kyungpook National University for one week with free access to animal chow and water. In the per oral administration (PO) groups, the mice were fasted for 14–16 h prior to the administration of 2-QBA.
# For intravenous (IV) administration, 2-QBA (0.5 mg/kg in 3 mL of saline containing 10% DMSO) was injected via the tail vein for eight mice that were randomly divided into two groups for sparse sampling. Blood samples were collected via the jugular vein at 0.083, 0.5, 2, and 8 h from 4 mice and at 0.25, 1, 4, and 24 h from another 4 mice. Eight mice were administered 1 mg/kg of 2-QBA using the same protocol described above.
# After the PO administration of 2-QBA (2 mg/kg in 5 mL of saline containing 10% DMSO) using an oral gavage for 10 mice, blood samples were collected at 0.25, 0.75, 2, and 8 h from 5 mice and at 0.5, 1, 4, and 24 h from another 5 mice. Ten mice in each group were administered 5 mg/kg or 15 mg/kg of 2-QBA using an oral gavage and blood was drawn using the same protocol described above. All blood samples were centrifuged at 13,000× g for 1 min and the supernatant plasma (30 μL) was stored at −80 °C until the analysis of the 2-QBA. For the analysis of 2-QBA in the plasma samples, 120 μL of IS solution (berberine 1 ng/mL in acetonitrile) was added to plasma samples (30 μL). The mixture was vigorously vortexed for 5 min and then centrifuged at 13,000× g for 5 min. The supernatant was transferred to autosampler vials. Subsequently, a 3 μL aliquot was injected into the LC-MS/MS system.
# WinNonlin 5.1 software (Pharsight Co., Mountain View, CA, USA) was used to calculate the pharmacokinetic parameters. AUClast and AUCinf indicate the areas under the plasma concentration curve from 0 h to the last sample and from 0 h to infinity, respectively; these were estimated using the linear trapezoidal method. T1/2 is the elimination half-life, which is estimated from the elimination coefficient (k) (i.e., 0.693/k), and MRT is the mean residence time. CL is the total clearance, which is calculated by dividing the dose by AUCinf. Vdss is the volume of the distribution at a steady state, calculated from MRTxCL. CLrenal and CLfeces are calculated by dividing the amount excreted in urine and feces by the AUCinf, respectively. CLmetabolism is calculated by subtracting CLrenal and CLfeces from CL. Cmax and Tmax are the maximum plasma concentration and time to reach Cmax, respectively. BA is calculated by dividing the dose-normalized AUCinf for PO administration (AUCinf/PO dose) by the dose-normalized AUCinf for IV administration (AUCinf/IV dose). All data are expressed as the mean ± standard deviation (SD).
# [2] = Intestinal permeability in Ussing chamber; assay type: in vitro ADME, mice; conditions: upper and lower ileum
# Protocol: The small intestines were isolated from fasted mice under isoflurane anesthesia (1–3% with oxygen gas flow) and dissected into three parts, the jejunum, upper ileum, and lower ileum. […] The intestinal permeability of 2-QBA was assessed by adding 0.5 mL of HBSS containing 20 μM of 2-QBA on the donor side and 0.5 mL of fresh HBSS on the receiver side. Then, a 100 μL aliquot was withdrawn from the receiver side every 30 min for 2 h and an equal volume of pre-warmed fresh HBSS was added to replenish the lost volume. To analyze the 2-QBA, 100 μL aliquots were mixed with 4 volumes of IS solution (1 ng/mL berberine in acetonitrile). The mixture was vigorously vortexed for 5 min and then centrifuged at 13,000× g for 5 min. The supernatant was transferred to autosampler vials. Subsequently, a 3 μL aliquot was injected into the LC-MS/MS system.
# [3] = Stability of 2-QBA in mouse plasma (QC samples); assay type: in vitro ADME; conditions: for Freeze-thaw cycle stability, Accuracy / Bench-top stability, Accuracy: mouse plasma; for Freeze-thaw cycle stability, Accuracy: 3 cycles; for Bench-top stability, Accuracy: 25 °C for 6 h; for Autosampler stability, Accuracy: prepared plasma samples, 6 °C for 24 h
# Protocol: The stability of 2-QBA in mouse plasma was tested in terms of its benchtop stability, freeze–thaw stability, and autosampler stability. In all stability tests, three sets of QC samples (3, 100, and 400 ng/mL) were prepared.
# The benchtop stability was tested by incubating the samples at 25 °C for 6 h. For the freeze–thaw stability, the samples were placed at −80 °C for over 12 h for freezing and thawed at 25 °C for 6 h as one cycle; the same protocol was repeated for three cycles. Finally, the autosampler stability was tested by placing the prepared QC samples in the autosampler at 6 °C for 24 h. After analyzing all of the stability test samples, the concentrations were calculated using freshly prepared calibration standards.
structure (smiles),measurement,setting,value
"O=C(O)c1ccccc1NC(=O)c1cccc2cccnc12 [2-QBA, 2-(quinoline-8-carboxamido)benzoic acid]",solubility,Water solubility,35.6 ± 2.71 µg/mL
same,AUC24h/dose,[1]; IV 0.5 mg/kg,824.7 ± 64.1 ng·h/mL/mg/kg
same,AUCinf/dose,[1]; IV 0.5 mg/kg,835.6 ± 64.6 ng·h/mL/mg/kg
same,AUC24h/dose,[1]; IV 1.0 mg/kg,996.7 ± 146.6 ng·h/mL/mg/kg
same,AUCinf/dose,[1]; IV 1.0 mg/kg,1044 ± 174.9 ng·h/mL/mg/kg
same,AUC(0-inf),[1]; IV 0.5 mg/kg,418 ± 32.3 ng·h/mL
same,MRT,[1]; IV 0.5 mg/kg,3.88 ± 1.58 h
same,clearance,[1]; IV 0.5 mg/kg,20 ± 1.53 mL/min/kg
same,half-life,[1]; IV 0.5 mg/kg,4.61 ± 2.19 h
same,AUC(0-t),[1]; IV 0.5 mg/kg,412 ± 32.1 ng·h/mL
same,Vd,[1]; IV 0.5 mg/kg,4.73 ± 2.15 L/kg
same,AUC(0-inf),[1]; IV 1.0 mg/kg,1040 ± 175 ng·h/mL
same,MRT,[1]; IV 1.0 mg/kg,3.03 ± 1.11 h
same,clearance,[1]; IV 1.0 mg/kg,16.3 ± 2.81 mL/min/kg
same,half-life,[1]; IV 1.0 mg/kg,5.26 ± 1.31 h
same,AUC(0-t),[1]; IV 1.0 mg/kg,997 ± 147 ng·h/mL
same,Vd,[1]; IV 1.0 mg/kg,2.88 ± 0.72 L/kg
same,absorptive permeability class compared with marker compounds,[2]; jejunum,moderate to high
same,"Papp A→B at 2 h, 20 μM","[2]; mouse, 20 μM donor, HBSS pH 7.4, range over jejunum, read-out: absorptive permeability",4.46 to 10 ×10⁻⁶ cm/s
same,"Freeze-thaw cycle stability, Accuracy",[3]; nominal 100 ng/mL,104.3%
same,"Freeze-thaw cycle stability, Accuracy",[3]; nominal 400 ng/mL,106.4%
same,"Bench-top stability, Accuracy",[3]; nominal 3 ng/mL,98.51%
same,"Bench-top stability, Accuracy",[3]; nominal 100 ng/mL,89.14%
same,"Bench-top stability, Accuracy",[3]; nominal 400 ng/mL,91.55%
same,"Autosampler stability, Accuracy",[3]; nominal 3 ng/mL,109.5%
same,"Autosampler stability, Accuracy",[3]; nominal 100 ng/mL,103.1%
same,"Autosampler stability, Accuracy",[3]; nominal 400 ng/mL,108.7%
